Read-outs that look alike come from different tables or passages of the source.
Columns and labels:
[1] = design: method as in PMID 22512907; conditions: given subcutaneously to rats; cited from earlier work
human 17β-HSD3 = test system: human 17β-HSD3; design: method as in PMID 22512907; conditions: whole HEK-293 cells over-expressing human 17β-HSD3; cited from earlier work
17β-HSD Type 1 = biological target: T1, 17β-HSD Type 1 (Homo sapiens, UniProt P14061); assay: 17β-HSD1 activity assay in T-47D breast cancer cells (estrone to estradiol); assay type: cell-based; conditions: T47D, T-47D cells; for inhibition at 10 µM: tested at 10 μM
T1 construct: endogenous in cells; host or cells: T-47D breast cancer cells
T1 sequence (P14061 1-328): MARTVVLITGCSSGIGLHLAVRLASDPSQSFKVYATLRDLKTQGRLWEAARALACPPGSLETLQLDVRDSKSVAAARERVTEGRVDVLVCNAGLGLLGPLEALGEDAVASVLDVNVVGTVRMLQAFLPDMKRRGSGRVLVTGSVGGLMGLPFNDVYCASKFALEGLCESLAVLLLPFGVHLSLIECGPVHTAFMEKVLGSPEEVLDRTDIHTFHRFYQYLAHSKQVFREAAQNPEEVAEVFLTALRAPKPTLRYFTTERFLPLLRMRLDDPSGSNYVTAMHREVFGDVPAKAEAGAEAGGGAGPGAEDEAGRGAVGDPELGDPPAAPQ
Experimental: The assay is of a similar format to the 17β-HSD Type 3 TLC assay. T-47D breast cancer cells, which express a high ratio of 17β-HSD Type 1 to 17β-HSD Type 2, were used to test the conversion of labelled estrone to estradiol in the presence and absence of the potential inhibitors. The cells were incubated with [^3H]-estrone at a concentration of 2 nM, in the absence or presence of the inhibitors (10 μM). After incubation of the culture for 3 h at 37 °C, the products were isolated and separated by TLC using DCM/ EtOAc (4:1). The amount of estradiol formed was measured and compared to the control cells, where no inhibitor was present. Each assay was carried out in the presence of a positive control (IC50 of 27 nM) to ensure reproducible results were obtained.

17β-HSD Type 2 [2] = biological target: T2, 17β-HSD Type 2 (Homo sapiens, UniProt P37059); assay: 17β-HSD2 activity assay in MDA-MB-231 cells (E2 to E1); assay type: cell-based; design: endogenous in cells; host or cells: MDA-MB-231 human breast cancer cells
T2 sequence (P37059 1-387): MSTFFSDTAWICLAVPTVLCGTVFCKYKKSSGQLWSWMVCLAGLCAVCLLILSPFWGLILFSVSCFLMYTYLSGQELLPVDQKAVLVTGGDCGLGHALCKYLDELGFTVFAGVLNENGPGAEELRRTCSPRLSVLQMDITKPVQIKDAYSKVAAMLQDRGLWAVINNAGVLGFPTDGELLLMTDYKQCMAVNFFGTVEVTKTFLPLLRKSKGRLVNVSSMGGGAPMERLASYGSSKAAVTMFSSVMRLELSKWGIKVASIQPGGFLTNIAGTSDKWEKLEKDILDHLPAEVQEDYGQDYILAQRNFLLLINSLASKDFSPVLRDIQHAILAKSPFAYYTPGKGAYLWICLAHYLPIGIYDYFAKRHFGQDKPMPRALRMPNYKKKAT
Experimental: MDA-MB-231 human breast cancer cells in T25 flasks were incubated with 2 nM [^3H]-E2 (41.3 Ci/mmol; PerkinElmer, Beaconsfield, Bucks, UK) in the presence or absence of 10 µM candidate 17β-HSD3 inhibitors. After 3 h at 37 °C, the steroids were isolated from the mixture by extraction with diethyl ether and procedural losses were measured using [^14C]-E1 (5000 dpm; PerkinElmer). Separation of [^3H]-E1 from [^3H]-E2 was achieved using thin layer chromatography, eluting with dichloromethane/ethyl acetate, 4:1 v/v and the amount of [^3H]-E1 produced was calculated from the […] [^3H] counts detected and recovery of [^14C]-E1 (Beckman LS 6000 SC). A positive control was used in this assay (IC50 5.4 μM) to ensure reproducible results were obtained.

17β-HSD3 = biological target: T3, 17β-HSD3 (Homo sapiens, UniProt P37058); assay: Assay for 17β-HSD3 activity (TLC assay) in 293-EBNA cells stably transfected with 17β-HSD3; assay type: cell-based; conditions: for inhibition at 10 µM: 293-EBNA, mean of at least two measurements, typically SD ±5%
T3 construct: expressed in transfected cells; host or cells: human 293-EBNA cells, stably transfected
T3 sequence (P37058 1-310): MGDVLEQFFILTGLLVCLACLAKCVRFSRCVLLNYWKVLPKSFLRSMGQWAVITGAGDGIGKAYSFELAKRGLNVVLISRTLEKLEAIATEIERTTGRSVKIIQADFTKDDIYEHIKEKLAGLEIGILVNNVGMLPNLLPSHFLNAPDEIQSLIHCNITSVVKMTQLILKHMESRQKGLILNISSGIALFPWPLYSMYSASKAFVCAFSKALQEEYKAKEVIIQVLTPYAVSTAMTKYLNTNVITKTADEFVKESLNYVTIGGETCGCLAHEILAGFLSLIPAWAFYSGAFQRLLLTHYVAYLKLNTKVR
Experimental: Human 293-EBNA cells stably transfected with 17β-HSD3 were plated at 50,000 cells/well in 24 well plates in complete growth medium. After 48 h 2–3 nM [^3H]-androstenedione in assay medium (500 mL DMEM medium with 5 mL 100 × L-glutamine and 5 mL 7.5% sodium bicarbonate solution) was added with or without test compound at 1.5 mL/well (triplicate), and the cells incubated at 37 °C. Two hours later 1 mL medium was removed from each well and placed in a 125 × 16 mm glass test tube containing 25 µL of recovery solution (5000 dpm ^14C-testosterone and 25 µg unlabelled testosterone […], and the tubes vortexed at high speed for 2 × 30 s. After the samples had settled into two phases, they were snap-frozen in a dry ice/methanol bath. The upper organic phase was decanted into 75 × 12 mm tubes and evaporated to dryness under an airstream using a sample concentrator (TECHNE) at 40 °C. The samples were resuspended in ether (8 drops, then a further 3), spotted onto ca 60 F254 20 cm × 20 cm TLC plates and separated using a 4:1 v/v dichloromethane: ethyl acetate mobile phase. After drying the plates, the major spots were marked under a UV lamp, cut out and placed in individual scintillation vials containing 0.5 mL methanol. These were then shaken lightly and allowed to stand for 15 min before adding 10 mL of EcoScintA (scintillation fluid) to each tube along with 0.5 mL assay medium and counted in a scintillation spectrometer (Beckman, High Wycombe, Bucks, UK), using a program for duel [^3H/^14C] isotopes. The number of cells/well was then counted using a Coulter10 counter (Beckman). The inhibitory activity of the test compounds was then assessed by calculating the amount of product formed correcting for crossover between isotope counts, recovery, dilution and non-enzymatic degradation fmol/hr/million cells) with and without inhibitor (% inhibition).

[3] = Compound toxicity, MTS/Alamar Blue proliferation assay, PC-3; assay type: cell-based; conditions: human, PC-3 (AR-) prostate cancer cells; PC3 (AR-); read-out: Cytotoxicity IC50 (µM) PC3 (AR-)
Experimental: (§1) AR+ (LNCaP) and AR- (PC-3) PCa cell lines were used as standard lines to determine the cytotoxicity of HSD3 inhibitor compounds. Toxicity was assessed over 96 h in 96 well plates using the standard MTS/Alamar Blue proliferation assay and over longer durations by cell counting methodologies.

[4] = Compound toxicity, MTS/Alamar Blue proliferation assay, LNCaP; assay type: cell-based; conditions: human, LNCaP (AR+) prostate cancer cells; read-out: Cytotoxicity IC50 (µM) LNCaP (AR+)
Experimental: as §1

[5] = test system: androstenedione-stimulated tumour growth; design: method as in PMID 18786604, PMID 23132791; conditions: mouse model; cited from earlier work
[6] = test system: LNCaP and PC-3 PCa cell lines; design: method as in PMID 18786604, PMID 23132791; conditions: introduction; cited from earlier work
17β-HSD Type 2 [7] = biological target: T2, 17β-HSD Type 2; conditions: introduction; cited from earlier work
[8] = design: method as in PMID 18786604, PMID 23132791; conditions: introduction; cited from earlier work
[9] = TLC assay, 293-EBNA[HSD3] cells, read-out: IC50 (17β-HSD3)

Structure (SMILES) | melting point [°C] | inhibition at 10 µM (17β-HSD Type 2 [2]) [%] | inhibition at 10 µM (17β-HSD3; TLC assay) [%] | IC50 (17β-HSD3; [9]) [nM] | inhibition at 10 µM (17β-HSD Type 1) [%] | IC50 at 96 h [3] [µM] | IC50 at 96 h [4] [µM] | also measured
C[C@@H]1CN(S(=O)(=O)c2ccccc2C(F)(F)F)[C@@H](C)CN1[C@@]1(O)CC[C@@]2(C)C(CCC3C2CC[C@]2(C)C(=O)CCC32)C1 (stereo partly drawn) [RM-532-105] | – | – | – | – | – | – | – | plasma levels of T and DHT [1]: significantly decreased; IC50 (human 17β-HSD3): 0.005 µM
CC(=O)N1CCCC(Nc2ccccc2Oc2ccc(Cl)cc2)c2ccccc21 (stereo not drawn) [STX2171] | – | 20.3 | – | 200 | – | 22 | 15.7 | inhibition of androstenedione-stimulated tumour growth [5]: potent inhibition; cytotoxicity in words [6]: weakly cytotoxic; selectivity for inhibition of 17β-HSD3 over 17β-HSD2 (17β-HSD Type 2 [7]): selective; androgenicity [8]: non-androgenic

Further lines, with some results ahead:

melting point [°C] | inhibition at 10 µM (17β-HSD Type 2 [2]) [%] | inhibition at 10 µM (17β-HSD3; TLC assay) [%] | IC50 (17β-HSD3; [9]) [nM] | inhibition at 10 µM (17β-HSD Type 1) [%] | Structure (SMILES) | IC50 at 96 h [3] [µM] | IC50 at 96 h [4] [µM] | also measured
194 to 196 | 15.9 | 87 | 900 | – | CC(=O)Nc1ccccc1CNc1ccccc1Oc1ccc(Cl)cc1 [Compound 1, N-(2-([2-(4-Chloro-phenoxy)-phenylamino]-methyl)-phenyl)-acetamide] | – | – | inhibition at 1 µM (17β-HSD Type 1; tested at 1 μM): 1.3%
140 to 143 | – | 91 | 3900 | -2.3 | CC(=O)N1CCC(C(=O)Nc2ccccc2CNc2ccccc2Oc2ccc(Cl)cc2)CC1 [Compound 23, 1-Acetyl-piperidine-4-carboxylic acid (2-[2-(4-chloro-phenoxy)-phenylamino]-methyl-phenyl)-amide] | – | – | –
– | 18.4 | – | – | 19.6 | CC(=O)N1CCC(CC(=O)N2CCN(C(c3ccc(Cl)cc3)c3ccc(Cl)cc3)C[C@@H]2C(C)(C)C)CC1 [SCH-451659] | 6.8 | 5.5 | IC50 (17β-HSD3; Table 10, read-out: Inhibition of 17β-HSD Type 3 (IC50 nM)): 5 nM

From paper PMC8659031, “Substituted Aryl Benzylamines as Potent and Selective Inhibitors of 17β-Hydroxysteroid Dehydrogenase Type 3” (Molecules, 2021)
